pIC50: −log10 of the molar value.
Columns and labels:
[1] = target: T1, Mcl-1/Bim interaction, recombinant human Mcl-1 (171-327) (Homo sapiens, UniProt Q07820); assay: Cell free Mcl-1: Bim Affinity Assay (Mcl-1 HTRF); assay type: binding
T1 construct: made in house
Outline: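 Compounds were mixed with the protein and a biotinylated Bim peptide spanning human residues 51-76. Plates were left overnight, then TR-FRET signal was measured. A four-parameter sigmoidal model applied to duplicate competition data gave IC50.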

[2] = system: OPM-2 human multiple myeloma cell line; assay: Cell Viability Assay (OPM-2 10 FBS); assay type: cell-based; settings: OPM-2 cells, CellTiter-Glo
Outline: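 IC50 from 4-parameter logistic fit of CellTiter-Glo luminescence. 3000 cells/well, 10% FBS medium, serial compound dilutions, 16 h, 37 °C/5% CO2; read 25 min post-reagent.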

[3] = cell free Mcl-1:Bim TR-FRET, recombinant human Mcl-1 (171-327)
[4] = Homo sapiens, OPM-2, 16 h, 16 h
[5] = TR-FRET, 0.1 nM Mcl-1 (171-327), 0.05 nM biotin-Bim (51-76)
[6] = Homo sapiens, OPM-2, 16 h, 16 h incubation

T1 sequence (Q07820 171-327): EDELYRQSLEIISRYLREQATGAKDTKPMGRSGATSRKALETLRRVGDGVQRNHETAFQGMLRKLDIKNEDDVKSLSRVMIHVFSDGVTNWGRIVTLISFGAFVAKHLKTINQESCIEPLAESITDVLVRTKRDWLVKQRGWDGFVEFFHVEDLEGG

## C[C@@H]1[C@@H](C)C/C=C/[C@H](OCCN2CCC2=O)[C@@H]2CC[C@H]2CN2C[C@@]3(CCCc4cc(Cl)ccc43)COc3ccc(cc32)C(=O)NS1(=O)=O [Example 731, (1S,3′R,6′R,7′S,8′E,11′S,12′R)-6-chloro-11′,12′-dimethyl-7′-(2-(2-oxo-1-azetedinyl)ethoxy)-3,4-dihydro-2H,15′H-spiro[naphthalene-1,22′-[20]oxa[13]thia[1,14]diazatetracyclo[14.7.2.0^3,6.0^19,24]pentacosa [8,16,18,24]tetraen]-15′-one-13′, 13′-dioxide]
[1]; [3]
  pIC50: 9.52
[2]; [4]
  pIC50: 6.93

## CS(=O)(=O)CCN1CC/C=C/[C@H](O)[C@@H]2CC[C@H]2CN2C[C@@]3(CCCc4cc(Cl)ccc43)COc3ccc(cc32)C(=O)NS1(=O)=O [Example 34, (1S,3′R,6′R,7′S,8′E)-6-chloro-7′-hydroxy-12′-(2-(methylsulfonyl)ethyl)-3,4-dihydro-2H,15′H-spiro[naphthalene-1,22′-[20]oxa[13]thia[1,12,14]triazatetracyclo[14.7.2.0^3,6.0^19,24]pentacosa[8,16,18,24]tetraen]-15′-one 13′,13′-dioxide]
[1]; [5]
  pIC50: 9.21
[2]; [4]
  pIC50: 5.44

## CC[C@@H]1CC/C=C/[C@H](OCCC(=O)N(C)C)[C@@H]2CC[C@H]2CN2C[C@@]3(CCCc4cc(Cl)ccc43)COc3ccc(cc32)C(=O)NS1(=O)=O [Example 1010, 3-(((1S,3′R,6′R,7′S,8′E,12′R)-6-chloro-12′-ethyl-13′,13′-dioxido-15′-oxo-3,4-dihydro-2H-spiro[naphthalene-1,22′-[20]oxa[13]thia[1,14]diazatetracyclo[14.7.2.0^3,6.0^19,24]pentacosa [8,16,18,24]tetraen]-7′-yl)oxy)-N,N-dimethylpropanamide]
[1]; [5]
  pIC50: 9.42
[2]; [6]
  pIC50: 6.53

## C[C@@H]1[C@@H](C)C/C=C/[C@H](OCCN2CCCC(F)(F)C2)[C@@H]2CC[C@H]2CN2C[C@@]3(CCCc4cc(Cl)ccc43)COc3ccc(cc32)C(=O)NS1(=O)=O [Example 515, (1S,3′R,6′R,7′S,8′E,11′S,12′R)-6-chloro-7′-(2-(3,3-difluoro-1-piperidinyl)ethoxy)-11′,12′-dimethyl-3,4-dihydro-2H,15′H-spiro[naphthalene-1,22′-[20]oxa[13]thia[1,14]diazatetracyclo[14.7.2.0^3,6.0^19,24]pentacosa [8,16,18,24]tetraen]-15′-one 13′,13′-dioxide]
[1]; [3]
  pIC50: 8.31
[2]; [4]
  pIC50: 5.60

## C[C@@H]1[C@@H](C)CCCC[C@H](O)[C@@H]2CC[C@H]2CN2C[C@@]3(CCCc4cc(Cl)ccc43)COc3ccc(cc32)C(=O)NS1(=O)=O (single isomer, unassigned) [Example 556]
[1]; [3]
  pIC50: 8.78
[2]; 16 h
  pIC50: 6.11

## O=C1NS(=O)(=O)[C@H](CC2CCOCC2)CC/C=C/[C@H](O)[C@@H]2CC[C@H]2CN2C[C@@]3(CCCc4cc(Cl)ccc43)COc3ccc1cc32 (single isomer, unassigned) [Example 187]
[1]; [5]
  pIC50: 9.61
[2]; 16 h
  pIC50: 6.37

## C[C@@H]1CS(=O)(=O)NC(=O)c2ccc3c(c2)N(C[C@@H]2CC[C@H]2C(=O)/C=C/[C@@H]1C)C[C@@]1(CCCc2cc(Cl)ccc21)CO3 (single isomer, unassigned) [Example 1059]
[1]; [5]
  pIC50: 8.01
[2]; [6]
  pIC50: 5.31

## CO[C@H]1/C=C/[C@@H](C)[C@H](C)[C@@H](C)S(=O)(=O)NC(=O)c2ccc3c(c2)N(C[C@@H]2CC[C@H]21)C[C@@]1(CCCc2cc(Cl)ccc21)CO3 [Example 1053, (1S,3′R,6′R,7′S,8′E,10′R,11′S,12′R)-6-chloro-7′-methoxy-10′,11′,12′-trimethyl-3,4-dihydro-2H,15′H-spiro[naphthalene-1,22′-[20]oxa[13]thia[1,14]diazatetracyclo[14.7.2.0^3,6.0^19,24]pentacosa [8,16,18,24]tetraen]-15′-one 13′,13′-dioxide]
[1]; [5]
  pIC50: 8.92
[2]; [6]
  pIC50: 5.83

## CCOC[C@@H]1[C@@H](C)C/C=C/[C@H](OC)[C@@H]2CC[C@H]2CN2C[C@@]3(CCCc4cc(Cl)ccc43)COc3ccc(cc32)C(=O)NS1(=O)=O (single isomer, unassigned) [Example 469]
[1]; [5]
  pIC50: 9.01
[2]; 16 h
  pIC50: 6.48

## COC1CC(N2[C@H](C)C/C=C/[C@H](O)[C@@H]3CC[C@H]3CN3C[C@@]4(CCCc5cc(Cl)ccc54)COc4ccc(cc43)C(=O)NS2(=O)=O)C1 (stereo partly drawn) [Example 79, (1S,3′R,6′R,7′S,8′E,11R)-6-chloro-7′-hydroxy-12′-(cis-3-methoxycyclobutyl)-11′-methyl-3,4-dihydro-2H,15′H-spiro[naphthalene-1,22′-[20]oxa[13]thia[1,12,14]triazatetracyclo[14.7.2.0^3,6.0^19,24]pentacosa[8,16,18,24]tetraen]-15′-one 13′,13′-dioxide]
[1]; [5]
  pIC50: 8.38
[2]; [4]
  pIC50: 5.44

## C[C@H]1C/C=C\[C@H](O)[C@@H]2CC[C@H]2CN2C[C@@]3(CCCc4cc(Cl)ccc43)COc3ccc(cc32)C(=O)NS(=O)(=O)N1C[C@@H]1CCCO1 (single isomer, unassigned) [Example 50]
[1]; [5]
  pIC50: 8.44
[2]; [4]
  pIC50: 5.66

## COCCO[C@@H]1/C=C/CCCS(=O)(=O)NC(=O)c2ccc3c(c2)N(C[C@@H]2CC[C@H]21)C[C@@]1(CCCc2cc(Cl)ccc21)CO3 [Example 210, (1S,3′R,6′R,7′R,8′E)-6-chloro-7′-(2-methoxyethoxy)-3,4-dihydro-2H,15′H-spiro[naphthalene-1,22′-[20]oxa[13]thia[1,14]diazatetracyclo[14.7.2.0^3,6.0^19,24]pentacosa [8,16,18,24]tetraen]-15′-one 13′,13′-dioxide]
[1]; [5]
  pIC50: 8.80
[2]; [4]
  pIC50: 5.82

## CC(=O)N1C[C@H]2C/C=C/[C@H](O)[C@@H]3CC[C@H]3CN3C[C@@]4(CCCc5cc(Cl)ccc54)COc4ccc(cc43)C(=O)NS(=O)(=O)[C@@H]2C1 (single isomer, unassigned) [Example 338]
[1]; [5]
  pIC50: 9.62
[2]; 16 h
  pIC50: 5.25

## CC[C@@H]1CCCC[C@H](OCC(=O)OC)[C@@H]2CC[C@H]2CN2C[C@@]3(CCCc4cc(Cl)ccc43)COc3ccc(cc32)C(=O)NS1(=O)=O [Example 993, methyl (((1S,3′R,6′R,7′S,12′R)-6-chloro-12′-ethyl-13′,13′-dioxido-15′-oxo-3,4-dihydro-2H-spiro[naphthalene-1,22′-[20]oxa[13]thia[1,14]diazatetracyclo[14.7.2.0^3,6.0^19,24]pentacosa [16,18,24]trien]-7′-yl)oxy)acetate]
[1]; [5]
  pIC50: 8.70
[2]; [6]
  pIC50: 6.43

## O=C1NS(=O)(=O)CCCCCC[C@@H](O)[C@@H]2CC[C@H]2CN2C[C@@]3(CCCc4cc(Cl)ccc43)COc3ccc1cc32 [Example 228, (1S,3′R,6′R,7′R)-6-chloro-7′-hydroxy-3,4-dihydro-2H,16′H-spiro[naphthalene-1,23′-[21]oxa[14]thia[1,15]diazatetracyclo[15.7.2.0^3,6.0^20,25]hexacosa[17,19,25]trien]-16′-one 14′,14′-dioxide]
[1]; [5]
  pIC50: 7.88
[2]; [4]
  pIC50: 4.64

## COC[C@H](O)C[C@@H]1CC/C=C/[C@H](OC)[C@@H]2CC[C@H]2CN2C[C@@]3(CCCc4cc(Cl)ccc43)COc3ccc(cc32)C(=O)NS1(=O)=O (single isomer, unassigned) [Example 651]
[1]; [3]
  pIC50: 9.50
[2]; 16 h
  pIC50: 6.64

## CNC(=O)[C@@H](OC)[C@@H]1CC[C@@H]2CC[C@H]2CN2C[C@@]3(CCCc4cc(Cl)ccc43)COc3ccc(cc32)C(=O)NS(=O)(=O)[C@H](C)[C@@H](C)C1 (single isomer, unassigned) [Example 363]
[1]; [5]
  pIC50: 9.10
[2]; 16 h
  pIC50: 6.32

## C[C@@H](O)C[C@@H]1CC/C=C\[C@H](O)[C@@H]2CC[C@H]2CN2C[C@@]3(CCCc4cc(Cl)ccc43)COc3ccc(cc32)C(=O)NS1(=O)=O (single isomer, unassigned) [Example 550]
[1]; [3]
  pIC50: 9.24
[2]; [4]
  pIC50: 5.14

## CO[C@H]1/C=C/[C@H](O)[C@@H]2CC[C@H]2CN2C[C@@]3(CCCc4cc(Cl)ccc43)COc3ccc(cc32)C(=O)NS(=O)(=O)[C@H](C)C1 (single isomer, unassigned) [Example 487]
[1]; [3]
  pIC50: 8.98
[2]; 16 h
  pIC50: 5.24

## O=C1NS(=O)(=O)[C@H](c2ccccn2)CC/C=C/[C@H](O)[C@@H]2CC[C@H]2CN2C[C@@]3(CCCc4cc(Cl)ccc43)COc3ccc1cc32 (single isomer, unassigned) [Example 692]
[1]; [3]
  pIC50: 9.22
[2]; 16 h
  pIC50: 5.82

## CO[C@H]1/C=C/CC[C@@H](C[C@@H](C)O)S(=O)(=O)NC(=O)c2ccc3c(c2)N(C[C@@H]2CC[C@H]21)C[C@@]1(CCCc2cc(Cl)ccc21)CO3 (single isomer, unassigned) [Example 548]
[1]; [3]
  pIC50: 9.56
[2]; 16 h
  pIC50: 6.32

## C[C@H]1C/C=C\[C@H](O)[C@@H]2CC[C@H]2CN2C[C@@]3(CCCc4cc(Cl)ccc43)COc3ccc(cc32)C(=O)NS(=O)(=O)[C@H]1C[C@H]1CCCO1 (single isomer, unassigned) [Example 136]
[1]; [5]
  pIC50: 9.59
[2]; [4]
  pIC50: 6.89

## C[C@@H]1[C@@H](C)C/C=C/[C@H](OCCN2CCN(S(C)(=O)=O)CC2)[C@@H]2CC[C@H]2CN2C[C@@]3(CCCc4cc(Cl)ccc43)COc3ccc(cc32)C(=O)NS1(=O)=O [Example 734]
[1]; [3]
  pIC50: 8.95
[2]; [4]
  pIC50: 6.87

## COC(=O)CC[C@]1(C)CC/C=C/[C@H](O)[C@@H]2CC[C@H]2CN2C[C@@]3(CCCc4cc(Cl)ccc43)COc3ccc(cc32)C(=O)NS1(=O)=O (single isomer, unassigned) [Example 561]
[1]; [3]
  pIC50: 8.45
[2]; 16 h
  pIC50: 5.07

## C[C@@H]1CC/C=C/[C@H](O[C@@H]2CCOC2=O)[C@@H]2CC[C@H]2CN2C[C@@]3(CCCc4cc(Cl)ccc43)COc3ccc(cc32)C(=O)NS1(=O)=O (single isomer, unassigned) [Example 414]
[1]; [5]
  pIC50: 9.73
[2]; [4]
  pIC50: 6.79

From patent US12091425B2 (AMGEN INC., priority 2016, dated 2024)
